The subject of assay [1] is HIF-1a. As to the kind of experiment: HIF-1a induction in digitonin-permeabilized human glioma cells (U87, U251). It counts as cell-based. As to conditions: 1 mM doses. The protocol: We determined the ability of each shown structure to induce HIF by exposing digitonin-permeabilized human glioma cells (U87, U251) to 1 mM doses.
At four hours, ATP levels were measured in cell extracts using the luciferase method.
(§1) In order to investigate the mechanism of action of the 2-oxoacid HIF inducers that we identified we first determined their effects upon cellular ATP levels. […] As shown in the scheme in FIG. 1, cellular levels of HIF-1a can be elevated by blockade of proteasomal activity, ubiquitinylation, or prolyl hydroxylation. Inhibition of the proteasome by lactacystin beta-lactone (Lbl) leads to accumulation of HIF-1a in its polyubiquitinylated form which generally appears as a smear of higher molecular weight species on western blots. […] Cellular accumulation and nuclear translocation of HIF-1a can also be studied via immunohistochemistry. For this purpose we utilized U251 cells which are more adherent to cell culture dishes that the U87 cells.

The test system of assay [2] is HIF-1a protein. As to the kind of experiment: HIF-1a levels in nuclear extracts of U87 glioma cells (western blot). It counts as cell-based, human. As to conditions: for HIF-1a accumulation, glucose replaced with metabolite: glucose-free Krebs, 3 mM concentrations; for Effect on induction of HIF-1a by glucose (Krebs buffer): 50 μM IAA, 1 mM 4-CIN, NAD or NADH 3 mM each, catalase 1000 and 2000 units/ml. The protocol: (A) U87 glioma cells cultured in DMEM were switched to Krebs buffer containing 5.5 mM glucose (Glc) and then evaluated for nuclear HIF-1a levels at various times by western blot analysis. (B) HIF-1a levels were measured after four hours incubation of cells in Krebs buffer containing the indicated glucose concentrations or with 5.5 mM 2-deoxyglucose (2-DG) substituted for glucose. (C) HIF-1a levels were measured in U87 cells cultured in glucose-free Krebs buffer following treatment for four hours under normoxia (21% oxygen) hypoxia (1% oxygen) or with 150 μm desferrioxamine (DFO). (D) Induction of HIF-1a by glucose was monitored in the presence of 50 μM IAA or 1 mM 4-CIN. […] Results are representative of experiments repeated at least three times.
Similar measurements were made in the presence of 50 μM IAA or in glucose-free Krebs buffer. […] HIF-1a induction by four hours treatment with 5.5 mM glucose-containing Krebs (Glc) is shown for comparison. (E) Digitonin-permeabilized cells were treated with 1% oxygen or Krebs containing either 5.5 mM glucose or 2 mM pyruvate in the presence of 50 μM IAA. Permeabilized cell in lanes 5 and 6 were treated with 3 mM NAD or NADH respectively in glucose free Krebs. Nuclear HIF-1a levels were determined four hours later. (F) HIF-1a levels were determined after four hour treatment of cells in glucose-free Krebs (lane 1) or 5.5 mM Glucose containing Krebs. […] (H) To measure the decay of the HIF-1a protein, HIF-1a measurements were made after four hour treatment under hypoxia (lane 1), four hours hypoxia followed by 30 minutes normoxia (lane 2), four hour treatment with 150 μM DFO (lane 3), four hours DFO followed by addition of 100 μM CHX for one hour (lane 4), four hours treatment with 2 mM pyruvate (lane 5), and four hours pyruvate followed by addition of 100 μM CHX for one hour (lane 6). (H) HIF-1a levels were determined in digitonin-permeabilized cells treated for four hour with Krebs containing no glucose (lane 1), 1 mM pyruvate (lane 2), or 1 mM pyruvate and 10 mM 2-OG (lane 3).
In order to resolve the biochemical mechanisms underlying this phenomenon, we studied the human glioma cell line U-87 under conditions of carefully defined culture media. Thus we studied these cells while culturing them in freshly prepared Krebs buffer, all components of which were known to us.
To precisely define the glucose metabolite mediating HIF-1a accumulation, we utilized pharmacological inhibitors of glycolysis as well as the direct addition of different glucose metabolites to cells (FIG. 4).
(In general: In western blotting, separated proteins are transferred to a membrane and probed.)

Assay [3] concerns HIF-1a protein. Put plainly: Nuclear HIF-1a accumulation in glioma cells by immunohistochemistry. It counts as cell-based, human. The conditions noted are these: 2 mM, four hours, glucose-free Krebs buffer, Lbl 20 μM.
Description: Cells were then washed, fixed and stained for HIF-1a protein.
as §1

Assay [4] deals with T1, HPH-1 (Homo sapiens, UniProt Q9H6Z9). The conditions noted are these: 20 mM competitor, ^35S-HPH-1, total binding.
T1 sequence (Q9H6Z9 whole entry): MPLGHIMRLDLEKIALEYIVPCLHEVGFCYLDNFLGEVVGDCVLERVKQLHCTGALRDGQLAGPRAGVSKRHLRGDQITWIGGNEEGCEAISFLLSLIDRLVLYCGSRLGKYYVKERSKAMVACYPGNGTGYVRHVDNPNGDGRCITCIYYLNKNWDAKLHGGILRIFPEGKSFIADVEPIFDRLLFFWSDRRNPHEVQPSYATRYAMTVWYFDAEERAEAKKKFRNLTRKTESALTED
Description: Following four further washes radiolabel associated with the pellets was measured via scintillation counting.
We also prepared ^35S-labeled HPH homologues from expression plasmids using the rabbit reticulocyte culture system (Bruick et al. (2001) Science 294, 1337-1340). The 2-OG column allowed us to investigate the binding of ^35S-HPH as well as potential competitors of binding.
Assay [5] concerns HRE containing promoter. Put plainly: HRE-luciferase reporter in U251 cells. It counts as cell-based, human. The source says:
FIG. 18: 2-oxoacids activate HIF-mediated gene expression in human cell lines Effective gene expression by HIF not only involves HIF protein stabilization via inhibition of HPH enzymes but also HIF-1 binding to DNA, inhibition of FIH-1 activity, and gene transcription (see FIG. 1). (A) Glioma cells used in our studies express FIH-1 as assessed using RT-PCR. […] Expression of beta-actin, a housekeeping gene not under HIF regulation is not affected by pyruvate. […] (E) U373 cell were transfected with a green fluorescent protein (GFP) construct under the control of an HIF regulatory element (HRE) containing promoter and then cultured for eight hours in glucose-free medium under the indicated conditions. […] U251 cells stably transfected with a luciferase construct under the control of an HRE containing promoter were cultured for six hours in glucose free Krebs with the following conditions: 1=control, 2=1% oxygen, 3=pyruvate (2 mM), 4=OAA (2 mM), 5=Ethylpyruvate (2 mM), 6=Glucose (5.5 mM), 7=DMOG (0.5 mM), 8=Lactacystin-beta lactone ([…]).
FIG. 19: HIF-mediated gene expression is selectively reversed by ascorbate U251 cells stably expressing HRE-luciferase were cultured in glucose-free Krebs buffer with the indicated conditions for eight hours. Pyruvate, oxaloacetate, and DMOG were added at 1 mM each.
Effective gene expression by HIF not only involves HIF protein stabilization via inhibition of HPH enzymes but also HIF-1 binding to DNA, inhibition of FIH-1 activity, and gene transcription. The human gliomas that we utilized for most of our studies all express mRNA for FIH-1 (FIG. 18A). […] To directly assess activation of gene containing an HRE regulated promoter by the glucose metabolites pyruvate and oxaloacetate, we used U373 glioma cells transfected with an HRE-green fluorescent (HRE-GFP) construct that responds to HIF activation.
In general terms: In a reporter assay the amount or activity of a reporter protein is the signal.

Assay [6] concerns the target T1, HPH-1. Put plainly: ^35S-pVHL capture assay, HPH-1. It counts as biochemical. Set-up: made in house; host or cells: rabbit reticulocyte in vitro translation from expression plasmids. The conditions noted are these: assay optimization shown for HPH-1, dose curves.
Description: After incubating the peptide with the HPHs and the indicated reagents, ^35S-pVHL was added followed by addition of streptavidin-coated beads to pull down the HIF-1a peptide. The reaction was pelleted, the pellet was washed and then solubilized for SDS-PAGE analysis followed by autoradiography to reveal the captured ^35S-pVHL. Using in vitro translated HPH homologues we first optimized assay conditions with respect to the required HPH substrates and co-factors. […] Conditions: ascorbate=2 mM, 2-OG=2 mM, DTT=1 mM. […] In all assays 5 μl (about 20 ng) of enzyme and 1 μg of peptide was utilized.
Ascorbate concentrations were varied as indicated and OAA or Pyr were added where indicated at 1 mM.
After incubating 1 μg amount of the peptide with in vitro translated HPH and the indicated reagents, ^35S-pVHL was added followed by the addition of Streptavidin-coated beads to pull down the HIF-1a peptide. The reaction was pelleted, and the pellet was washed and solubilized for SDS-PAGE analysis followed by autoradiography to reveal the captured ^35S-pVHL. Using each of the in vitro translated HPH homologues we first optimized assay conditions with respect to the required HPH substrates and co-factors.
Assay [7] concerns HIF-1a. Put plainly: HIF-1a induction in digitonin-permeabilized human glioma cells (U87, U251). In kind it is cell-based. The conditions noted are these: 1 mM ATP.

“Also recorded” adds a separate entry of the source. Read-outs that look alike come from different tables or passages of the source.

Consider `CC(C)CC(=O)C(=O)O` [alpha-ketoisocaproate], for which the “Ability to induce HIF (HIF-1a accumulation), structure-activity” value (“Ability to induce HIF” below) in assay [1] was “capable of stimulating HIF-1a accumulation”.

In the case of succinate, in assay [2] (four hours), the “HIF-1a accumulation, glucose replaced with metabolite” value (“HIF-1a accumulation, glucose replaced” for short) is listed as “without effect”. Moreover, the “Nuclear HIF-1a accumulation (immunostaining)” value is “ineffectiveness” in assay [3] and “does not affect HIF-1a accumulation” in assay [3] (listed as Succinate). Further, in assay [4], the “Displacement of HPH binding to the 2-oxoglutarate column” value is reported as “could not; also recorded: but not by 20 mM succinate”.

For `O=C(O)CC(O)C(=O)O` (stereo not shown) [malate], the “Ability to induce HIF” value in assay [1] is given as “ineffective”.

On to `O=C(O)CC(O)(CC(=O)O)C(=O)O` [citrate], for which the “HIF-1a accumulation, glucose replaced” value in assay [2] (four hours) is given as “without effect”.

On to `NC(=O)c1ccc[n+]([C@@H]2O[C@H](COP(=O)([O-])OP(=O)(O)OC[C@H]3O[C@@H](n4cnc5c(N)ncnc54)[C@H](O)[C@@H]3O)[C@@H](O)[C@H]2O)c1` [NAD], for which the “Effect on induction of HIF-1a by glucose (Krebs buffer)” value (“Effect on induction of HIF-1a” below) in assay [2] was “neither NAD or NADH (3 mM each) had any effect on this induction”.

Turning to `O=CC[C@@H](O)[C@H](O)[C@H](O)CO` [2-deoxyglucose], the HIF-1a levels result in assay [2] (Krebs buffer with glucose or 5.5 mM 2-deoxyglucose, four hours, normoxia) is reported as “could not be mimicked”.

In the case of `CCC(=O)C(=O)O` [alpha-ketobutyrate], the “Ability to induce HIF” value in assay [1] is “ineffectiveness”.

Regarding `CC(C)C(=O)C(=O)O` [alpha-ketoisovalerate], the “Ability to induce HIF” value in assay [1] was “capable of stimulating HIF-1a accumulation”.

Consider `C[C@H](N)C(=O)O` [alanine], for which, in assay [2] (four hours), the “HIF-1a accumulation, glucose replaced” value is recorded as “without effect”.

In the case of `O=C(O)CCC(=O)C(=O)O` [2-oxoglutarate], the “Reversal of HRE-luciferase activation by pyruvate or oxaloacetate” value in assay [5] (eight hours, oxaloacetate 1 mM, 2-oxoglutarate 10 mM) is reported as “No reversal was seen”. The “Displacement of HPH binding to the 2-oxoglutarate column” value is recorded as “Nearly half of the total binding of HPH to the 2-oxoglutarate column could be displaced” in assay [4] and “could displace this binding” in assay [4] (listed as 2-OG). Besides, in assay [6], the “Requirement of substrates and co-factors for HPH activity” value is “absolutely required for activity”.

As for `NC(=O)CI` [Iodoacetamide], in assay [2], the “Effect on induction of HIF-1a” value is reported as “completely blocked the ability of Krebs buffer to stimulate HIF-1a accumulation”.

As for `O=C(O)CCCC(=O)C(=O)O` [alpha-ketoadipate], in assay [1], the “Ability to induce HIF” value is “ineffectiveness”.

Turning to `CC[C@H](C)C(=O)C(=O)O` [alpha-keto-beta-methylvalerate], the “Ability to induce HIF” value in assay [1] is reported as “capable of stimulating HIF-1a accumulation”.

As to lactate, in assay [2] (four hours), the “HIF-1a accumulation, glucose replaced” value is reported as “activate HIF-1a directly”.

On to Catalase, for which the “Effect on induction of HIF-1a” value in assay [2] is “had no effect”.

As for `Nc1ncnc2c1ncn2[C@@H]1O[C@H](COP(=O)(O)OP(=O)(O)OP(=O)(O)O)[C@@H](O)[C@H]1O` [ATP], the “HIF-1a levels after direct addition of ATP” value in assay [7] was “did not raise basal HIF-1a levels; also recorded: had no effect on HIF-1a levels”.

Take `O=S(=O)([O-])[O-].[Fe+2]` [Iron, iron sulfate]: the “Requirement of substrates and co-factors for HPH activity” value in assay [6] is listed as “absolutely required up to a maximal of about 100 μM”.

As to `O=C(O)C=Cc1ccc(O)cc1` [Cinnamate, 4-hydroxycinnamate], the “Effect on induction of HIF-1a” value in assay [2] is given as “did not prevent the effect of Krebs buffer on HIF-1a accumulation”.

Take `CCOC(=O)C(C)=O` [ethylpyruvate, Ethylpyruvate]: the “HIF-1a accumulation, glucose replaced” value in assay [2] (four hours) is on record as “as pronounced as those of the known 2-oxoglutarate antagonist dimethyloxalylglycine (DMOG)”. The “Ability to induce HIF” value in assay [1] is “identified as HIF-1 activators”. Moreover, the HRE-luciferase expression entry in assay [5] (six hours, glucose free Krebs, pyruvate, OAA, Ethylpyruvate 2 mM, Lactacystin-beta lactone 20 mM) is “prominent activation of luciferase gene expression”.

For `NC(=O)C1=CN([C@@H]2O[C@H](COP(=O)(O)OP(=O)(O)OC[C@H]3O[C@@H](n4cnc5c(N)ncnc54)[C@H](O)[C@@H]3O)[C@@H](O)[C@H]2O)C=CC1` [NADH], the “Effect on induction of HIF-1a” value in assay [2] was “neither NAD or NADH (3 mM each) had any effect on this induction”.

The record behind these values is patent publication US20070173545A1, “Activation of hypoxia-inducible gene expression” (priority 2003, published 2007).
